From ChEMBL document CHEMBL1153907, “Synthesis and biological evaluation of C-12 triazole and oxadiazole analogs of salvinorin A” (Bioorg Med Chem Lett, 2009)

What was measured:
Mu-type opioid receptor = Mu-type opioid receptor (Rattus norvegicus, UniProt P33535); assay: Displacement of [3H]diprenorphine from rat mu opioid receptor expressed in CHO cells; format: cell-based
[1] = target: T1, Kappa-type opioid receptor (Homo sapiens, UniProt P41145); assay: Displacement of [3H]diprenorphine from human kappa opioid receptor expressed in CHO cells in presence of EGTA; format: cell-based
T1 sequence (P41145 whole entry): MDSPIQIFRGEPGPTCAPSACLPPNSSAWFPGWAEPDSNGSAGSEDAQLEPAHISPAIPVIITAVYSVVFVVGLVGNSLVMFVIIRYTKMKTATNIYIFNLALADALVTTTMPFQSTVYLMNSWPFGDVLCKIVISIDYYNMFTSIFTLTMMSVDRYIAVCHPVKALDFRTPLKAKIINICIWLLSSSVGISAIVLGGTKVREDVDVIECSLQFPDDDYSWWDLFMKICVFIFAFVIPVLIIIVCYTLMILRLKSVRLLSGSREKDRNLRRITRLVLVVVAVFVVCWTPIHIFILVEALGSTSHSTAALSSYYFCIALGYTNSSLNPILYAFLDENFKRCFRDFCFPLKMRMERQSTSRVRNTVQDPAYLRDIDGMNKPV

[2] = target: Delta-type opioid receptor (Mus musculus, UniProt P32300); assay: Displacement of [3H]diprenorphine from mouse delta opioid receptor expressed in CHO cells; format: cell-based
Sequence of Delta-type opioid receptor (P32300 whole entry): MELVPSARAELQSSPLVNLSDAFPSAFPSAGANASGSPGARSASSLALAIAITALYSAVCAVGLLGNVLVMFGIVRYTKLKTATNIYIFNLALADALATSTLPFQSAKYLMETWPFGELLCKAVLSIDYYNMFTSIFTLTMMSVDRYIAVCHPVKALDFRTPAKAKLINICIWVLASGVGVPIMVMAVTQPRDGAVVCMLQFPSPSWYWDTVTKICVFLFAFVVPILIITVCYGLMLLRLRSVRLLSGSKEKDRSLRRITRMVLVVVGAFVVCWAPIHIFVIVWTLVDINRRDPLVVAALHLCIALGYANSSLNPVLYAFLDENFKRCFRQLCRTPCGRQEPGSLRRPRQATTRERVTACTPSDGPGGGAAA

[3] = target: T1, Kappa-type opioid receptor; assay: Agonist activity at human kappa opioid receptor expressed in CHO cells assessed as increase in […] [35S]GTPgammaS binding; format: functional, cell-based
[4] = target: T1, Kappa-type opioid receptor; assay: Displacement of [3H]diprenorphine from human kappa opioid receptor expressed in CHO cells; format: cell-based

Sequence of Mu-type opioid receptor (P33535 whole entry): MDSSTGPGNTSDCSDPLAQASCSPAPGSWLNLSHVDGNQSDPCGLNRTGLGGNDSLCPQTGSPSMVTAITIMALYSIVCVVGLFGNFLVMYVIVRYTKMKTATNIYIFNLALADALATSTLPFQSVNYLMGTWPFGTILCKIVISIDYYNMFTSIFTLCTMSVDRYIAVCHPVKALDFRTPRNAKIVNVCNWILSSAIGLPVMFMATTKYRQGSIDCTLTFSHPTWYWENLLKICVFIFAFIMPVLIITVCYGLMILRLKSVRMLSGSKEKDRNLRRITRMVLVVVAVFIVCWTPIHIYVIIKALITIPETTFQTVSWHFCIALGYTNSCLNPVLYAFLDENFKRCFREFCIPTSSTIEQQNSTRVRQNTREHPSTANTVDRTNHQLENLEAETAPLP

COC(=O)[C@@H]1C[C@H](OC(C)=O)C(=O)[C@H]2[C@@]1(C)CC[C@H]1C(=O)O[C@H](c3nc(C)no3)C[C@]21C
> 1000 nM: Ki (Mu-type opioid receptor) | Ki [1] | Ki [2] | EC50 [3] | Ki [4]

COC(=O)[C@@H]1C[C@H](OC(C)=O)C(=O)[C@H]2[C@@]1(C)CC[C@H]1C(=O)O[C@H](c3cn(Cc4ccccc4)nn3)C[C@]21C
> 1000 nM: Ki (Mu-type opioid receptor) | Ki [2] | Ki [4]

COC(=O)[C@@H]1C[C@H](OC(C)=O)C(=O)[C@H]2[C@@]1(C)CC[C@H]1C(=O)O[C@H](c3cn(COC(=O)C(C)(C)C)nn3)C[C@]21C
> 1000 nM: Ki (Mu-type opioid receptor) | Ki [2] | Ki [4]

COC(=O)[C@@H]1C[C@H](OC(C)=O)C(=O)[C@H]2[C@@]1(C)CC[C@H]1C(=O)O[C@H](c3cn(C)nn3)C[C@]21C
> 1000 nM: Ki (Mu-type opioid receptor) | Ki [2] | Ki [4]

COC(=O)[C@@H]1C[C@H](OC(C)=O)C(=O)[C@@H]2[C@@]3(C)C[C@@H](c4c[nH]nn4)OC(=O)[C@H]3CC[C@]21C
> 1000 nM: Ki (Mu-type opioid receptor) | Ki [2] | Ki [4]

COC(=O)[C@@H]1C[C@H](OC(C)=O)C(=O)[C@H]2[C@@]1(C)CC[C@H]1C(=O)O[C@H](c3c[nH]nn3)C[C@]21C
> 1000 nM: Ki (Mu-type opioid receptor) | Ki [2] | Ki [4]

CCn1cc([C@@H]2C[C@]3(C)[C@H]4C(=O)[C@@H](OC(C)=O)C[C@@H](C(=O)OC)[C@]4(C)CC[C@H]3C(=O)O2)nn1
> 1000 nM: Ki (Mu-type opioid receptor) | Ki [2] | Ki [4]
